# Assay results reported in patent publication EP4782453A1 (Beyang Therapeutics Co., Ltd., priority 2023, dated 2025).
# Biological target: T1, Menin-MLL (Homo sapiens, UniProt O00255)
# T1 construct: His-Menin (M1-L615 end); purchased BIORTUS BP9210
# T1 sequence (O00255 1-615 isoform O00255-1): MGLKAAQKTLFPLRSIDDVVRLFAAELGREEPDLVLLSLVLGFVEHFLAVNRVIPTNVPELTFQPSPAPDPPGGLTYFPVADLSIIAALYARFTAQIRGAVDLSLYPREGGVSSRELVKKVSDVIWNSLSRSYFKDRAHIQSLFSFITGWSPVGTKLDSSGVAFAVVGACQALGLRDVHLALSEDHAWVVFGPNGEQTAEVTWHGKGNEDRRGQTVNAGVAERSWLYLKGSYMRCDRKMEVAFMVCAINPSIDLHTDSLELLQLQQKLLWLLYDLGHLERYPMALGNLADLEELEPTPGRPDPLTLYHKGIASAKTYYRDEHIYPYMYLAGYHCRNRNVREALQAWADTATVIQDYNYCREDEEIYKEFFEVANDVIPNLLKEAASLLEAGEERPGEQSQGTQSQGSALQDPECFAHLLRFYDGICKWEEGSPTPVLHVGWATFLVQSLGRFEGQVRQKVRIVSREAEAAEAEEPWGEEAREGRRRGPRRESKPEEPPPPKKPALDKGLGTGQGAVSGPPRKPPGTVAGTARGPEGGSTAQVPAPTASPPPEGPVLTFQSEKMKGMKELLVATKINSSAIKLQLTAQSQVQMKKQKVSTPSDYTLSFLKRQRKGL
# Experiment: Inhibitory activity against Menin-MLL binding (fluorescence polarization)
# Details: Menin-MLL IC50, fluorescence polarization; 150 nM His-Menin, 15 nM FITC-MLL; 25°C for 60 min
# Procedure: • His-Menin (M1-L615 end), purchased from BIORTUS, Catalog Number: BP9210; and • FITC-MLL4-43, purchased from GenScript, Catalog Number: C491HFF190-3/PE1324.
# In a 10 µL reaction solution (20 mM HEPES, pH 7.5, 50 mM NaCl, 1 mM DTT, 0.01% BSA) containing any compound from the examples, 150 nM His-Menin was added to a 384-well plate (Corning, Model: 4514). Each concentration was set up in duplicate wells. After centrifugation at 1000 RPM for 1 min, the plate was incubated at 25°C for 15 min. Then, 15 nM […] (20 mM HEPES, pH 7.5, 50 mM NaCl, 1 mM DTT, 0.01% BSA) was added to a 384-well plate. After centrifugation at 1000 RPM for 1 min, the reaction proceeded at 25°C for 60 min. Changes in fluorescence polarization were measured using a plate reader (PerkinElmer, Envision 2104). Based on the measured signals, the binding inhibition rate of the compound at each concentration was calculated, and the IC50 (half-maximal inhibitory concentration) of the compound was determined using statistical analysis software GraphPad Prism (GraphPad Software, Inc.) by means of a nonlinear fitting formula: 4-Parameter Logistic Model or Sigmoidal Dose-Response Model: Y = Bottom + (Top−Bottom)/(1 + 10^((LogIC50−X) × Hill Slope)), [formula] in which X indicates the logarithm of compound concentration, Y indicates a fluorescence polarization mP value, and Top and Bottom indicate the maximum and minimum readouts of fluorescence polarization mP values. Table 1: Inhibitory Activity of Compounds Against Menin-MLL Binding
row,SMILES,IC50
1,"CCN(C(=O)c1cc(F)ccc1-c1cc(C2CCN(C[C@H]3CC[C@H](NS(=O)(=O)CC)CC3)CC2)nn2c(C)ncc12)C(C)C [Example 136, N-ethyl-5-fluoro-2-[7-methyl-2-(1-{[(1r,4r)-4-ethanesulfonamidocyclohexyl]methyl}piperidin-4-yl)imidazo[1,5-b]pyridazin-4-yl]-N-(isopropyl)benzamide]",129 nM
2,"CCC(=O)N(c1cc(F)ccc1-c1cc(N2CCN(C(=O)C3NC4CCC3CC4)CC2)cn2c(C)ncc12)C(C)C [Example 77, N-[5-fluoro-2-(3-methyl-6-{4-[(1R,3S,4S)-2-azabicyclo[2.2.2]octan-3-carbonyl]piperazin-1-yl}imidazo[1,5-a]pyridin-8-yl)phenyl]-N-(isopropyl)propionamide]",100 nM
3,"CCN(C(=O)c1cc(F)ccc1-c1cc([C@H]2CCN(C[C@H]3CC[C@H](NS(=O)(=O)CC)CC3)C2)cc2cncn12)C(C)C [Example 25-2, N-ethyl-5-fluoro-N-isopropyl-2-{7-[(3R)-1-{[(1r,4r)-4-ethanesulfonamidocyclohexyl]methyl}pyrrolidin-3-yl]imidazo[1,5-a]pyridin-5-yl}benzamide]",21 nM
4,"CCN(C(=O)c1cc(F)ccc1-c1cc(C2=CCN(C(=O)C3NC4CCC3CC4)CC2)n2ccncc12)C(C)C [Example 110, N-ethyl-5-fluoro-N-(isopropyl)-2-(6-{1-[(1R,3S,4S)-2-azabicyclo[2.2.2]octan-3-carbonyl]-1,2,3,6-tetrahydropyridin-4-yl}pyrrolo[1,2-a]pyrazin-8-yl)benzamide]",25 nM
5,"CCS(=O)(=O)N[C@H]1CC[C@H](CN2CC(c3cc(-c4ccc(F)cc4C(=O)N(CC(F)F)C(C)C)c4cnn(C)c4c3)C2)CC1 [Example 153, N-(2,2-difluoroethyl)-5-fluoro-2-[1-methyl-6-(1-{[(1r,4r)-4-ethanesulfonamidocyclohexyl]methyl}-azacyclobutan-3-yl)-1H-indazol-4-yl]-N-(isopropyl)benzamide]",31 nM

# Same assay, conditions: fluorescence polarization; 150 nM His-Menin, 15 nM FITC-MLL; 25°C for 60 min; read-out: Menin-MLL IC50
row,IC50,SMILES
1,2.1 nM,CCN(C(=O)c1cc(F)ccc1-c1cc(C2CN([C@H](CCCN3CC4(COC4)C3)C(C)C)C2)cn2c(C)ncc12)C(C)C [Example 388]
2,14 nM,"CCN(C(=O)c1cc(F)ccc1-c1cc(C2CN(C(CO)C(C)C)C2)cn2c(C)ncc12)C(C)C (centres unmarked) [Example 421, N-ethyl-5-fluoro-2-{6-[1-(1-hydroxyl-3-methylbutan-2-yl)azacyclobutan-3-yl]-3-methylimidazo[1,5-a]pyridin-8-yl}-N-(isopropyl)benzamide]"
3,27 nM,"Cc1cncc2c(-c3ccc(F)cc3C(=O)N(C)C(C)C)cc(CC3CN([C@@H](CCCN4CCN(CCO)CC4)C(C)C)C3)n12 [Example 477-2, 5-fluoro-2-[6-({1-[(3S)-6-[4-(2-hydroxylethyl)piperazin-1-yl]-2-methylhexan-3-yl]azacyclobutan-3-yl}methyl)-4-methylpyrrolo[1,2-a]pyrazin-8-yl]-N-methyl-N-(isopropyl)benzamide]"
4,20 nM,CC(=O)N1CC2CC(C1)N2CCC[C@H](C(C)C)N1CC(c2cc(-c3ccc(F)cc3C(=O)N3CCOC[C@H]3C)c3cnn(C)c3c2)C1 [Example 386]
5,15 nM,"CCN(C(=O)c1cc(F)ccc1-c1cc(C2(O)CN([C@H](CCCN3CCN(CCO)CC3)C(C)C)C2)cn2c(C)ncc12)C(C)C [Example 464-1, N-ethyl-5-fluoro-2-(6-{3-hydroxyl-1-[(3R)-6-[4-(2-hydroxylethyl)piperazin-1-yl]-2-methylhexan-3-yl]azacyclobutan-3-yl}-3-methylimidazo[1,5-a]pyridin-8-yl)-N-(isopropyl)benzamide]"
6,11 nM,"CCN(C(=O)c1cc(F)ccc1-c1cc(C2CN(C(C[C@@H]3CNCCO3)C(C)C)C2)cn2c(C)ncc12)C(C)C (stereo partly drawn) [Example 462, N-ethyl-5-fluoro-2-[3-methyl-6-(1-{3-methyl-1-[(2R)-morpholin-2-yl]butan-2-yl}azacyclobutan-3-yl)imidazo[1,5-a]pyridin-8-yl]-N-(isopropyl)benzamide]"
7,62 nM,CCN(C(=O)c1cc(F)ccc1-c1cc(C2CN([C@H](CN3CCN(C(C)=O)CC3)C(C)C)C2)cc2c1cnn2C)C(C)C [Example 417]
8,40 nM,"Cc1ncc2c(-c3ccc(F)cc3C(=O)N(CC(F)F)C(C)C)cc(C3CN([C@@H](CCCN4CCN(CCO)CC4)C(C)C)C3)cn12 [Example 459-2, N-(2,2-difluoroethyl)-5-fluoro-2-(6-{1-[(3S)-6-[4-(2-hydroxylethyl)piperazin-1-yl]-2-methylhexan-3-yl]azacyclobutan-3-yl}-3-methyl-imidazo[1,5-a]pyridin-8-yl)-N-(isopropyl)benzamide]"
9,8 nM,CCC(=O)N1CCN(CCC[C@H](C(C)C)N2CC(c3cc(-c4ccc(F)cc4C(=O)N4CCOC[C@H]4C)c4c(F)nc(C)n4c3)C2)CC1 [Example 335]

# Further lines, the compound ahead of its results:
row,SMILES,IC50
1,"CCC(=O)N1CCC([C@@H](C)N2CC(c3cc(-c4ccc(F)cc4C(=O)N4CCOC[C@H]4C)c4cnc(C)n4c3)C2)CC1 [Example 319-2, 1-{4-[(1R)-1-[3-(8-{4-fluoro-2-[(3R)-3-methylmorpholin-4-carbonyl]phenyl}-3-methylimidazo[1,5-a]pyridin-6-yl)azacyclobutan-1-yl]ethyl]piperidin-1-yl}propan-1-one]",328 nM
2,CCN(C(=O)c1cc(F)ccc1-c1cc(C2CCN(CC3CCN(c4nnc(C)o4)CC3)C2)cn2cncc12)C(C)C (centres unmarked) [Example 46],62.5 nM
3,CCS(=O)(=O)N1CCC(CN2CC(c3cc(-c4ccc(F)cc4C(=O)N4CCOC[C@H]4C)c4c(F)nc(C)n4c3)C2)CC1 [Example 251],106 nM
4,"Cc1nc(F)c2c(-c3ccc(F)cc3C(=O)N3CCOC[C@H]3C)cc(C3CN(C(C)C4CCOCC4)C3)cn12 (stereo partly drawn) [Example 238, (3R)-4-[5-fluoro-2-(1-fluoro-3-methyl-6-{1-[1-(oxacyclohexan-4-yl)ethyl]azacyclobutan-3-yl}imidazo[1,5-a]pyridin-8-yl)benzoyl]-3-methylmorpholine]",10 nM
5,"C=C1C[C@@H]2CC[C@H]1[C@@H](C(=O)N1CCC(c3cc(-c4ccc(F)cc4C(=O)N(CC)C(C)C)c4cncn4c3)CC1)N2 [Compound 39, N-ethyl-5-fluoro-2-(6-{1-[(1S,3S,4R)-5-methylene-2-azabicyclo[2.2.2]octan-3-carbonyl]piperidin-4-yl}imidazo[1,5-a]pyridin-8-yl)-N-(isopropyl)benzamide]",137 nM
6,"Cc1nc(F)c2c(-c3ccc(F)cc3C(=O)N3CCOC[C@H]3C)cc(C3CN(C[C@H]4CC[C@H](c5ncno5)CC4)C3)cn12 [Example 207-1, (3R)-4-{5-fluoro-2-[1-fluoro-3-methyl-6-(1-{[(1r,4r)-4-(1,2,4-oxadiazol-5-yl)cyclohexyl]methyl}azacyclobutan-3-yl)imidazo[1,5-a]pyridin-8yl]benzoyl}-3-methylmorpholine]",111 nM
7,Cc1nc(F)c2c(-c3ccc(F)cc3C(=O)N3CCOC[C@H]3C)cc(C3CN([C@@H](C)C4CCN(C(=O)C5CC5)CC4)C3)cn12 [Example 299],15 nM
8,"Cc1nc(F)c2c(-c3ccc(F)cc3C(=O)N3CCOC[C@H]3C)cc(C3CN([C@H](CO[C@H]4CCN(C)C4)C(C)C)C3)cn12 [Example 322, (3R)-4-[5-fluoro-2-(1-fluoro-3-methyl-6-{1-[(2S)-3-methyl-1-{[(3S)-1-methylpyrrolidin-3-yl]oxy}butan-2-yl]azacyclobutan-3-yl}imidazo[1,5-a]pyridin-8yl)benzoyl]-3-methylmorpholine]",2 nM
9,COCCN(C)CCCC(C(C)C)N1CC(c2cc(-c3ccc(F)cc3C(=O)N(CC(F)F)C(C)C)c3cnn(C)c3c2)C1 (centres unmarked) [Example 180],22 nM
10,CNC(=O)N1CCC(CN2CC(c3cc(-c4ccc(F)cc4C(=O)N4CCOC[C@H]4C)c4cnn(C)c4c3)C2)CC1 [Example 172],98 nM
11,Cc1nc(F)c2c(-c3ccc(F)cc3C(=O)N3CCOCC3C)cc(C3CN(C(C)C4CCN(C(=O)CC#N)CC4)C3)cn12 (centres unmarked) [Example 263-1],74 nM
12,Cc1ncc2c(-c3ccc(F)cc3C(=O)N(CC(F)F)C(C)C)cc(N3CCN(C(=O)[C@@H]4CCCN4)CC3)cn12 [Example 119],41 nM
